Read-outs that look alike come from different tables or passages of the source.

Data set [1] in a line: Pharmacokinetic study of DH in rats after oral and intravenous administration (non-compartmental analysis). In kind it is in vivo, male Sprague–Dawley (SD) rats. To be noted: for MRT last: read-out: MRT0–t; for MRT inf: read-out: MRT0–∞; for half-life: read-out: T1/2 (terminal half-life) (converted). The method, then:
The Xinjiang Medical University (Xinjiang, China) provided twelve male Sprague–Dawley (SD) rats (weight 200 ± 20 g). The Animal Experimentation Ethics Committee of Xinjiang Medical University gave its approval to all animal experiments. DH was created using a mixture consisting of 2% ethanol, 8% Kolliphor, and 90% distilled water. Twelve rats were selected randomly and divided into two groups. Before administering the oral dose, the rats were fasted for 12 h but were allowed access to water. Each rat in the oral group was orally given 19.2 mg/kg of DH. Blood samples were collected from their ophthalmic veins at 0, 0.25, 0.5, 1, 1.5, 2, 4, 8, 12, and 24 h for the oral study. In the intravenous group, each rat was given an intravenous tail injection of 1.9 mg/kg of DH. Blood was collected from their ocular veins at 0, 0.1, 0.25, 0.5, 0.75, 1, 1.5, 3.4, 7.5, 12, and 24 h for further analysis. The collected plasma was thereafter subjected to centrifugation (14,000 rpm) for 10 min in a 1.5 mL polyethylene collection tube with EDTA. Following centrifugation, the supernatant was stored in a refrigerator at –80 °C.
Rat plasma samples were assessed for DH using a Thermo Fisher Scientific Q Exactive Plus Orbitrap MS and a Dionnex Ultimate 3000 RSL nano System (Thermo Fisher Scientific, Bremen, Germany). Chromatographic separation was performed with a pre-column (1.7 µm) and an ACQUITY UHPLC BEH C18 column (2.1 × 75 mm, 1.7 µm). The procedure utilized a 10 µL injection volume and was carried out for 5 min at 0.2 mL/min isocratic (70%A (0.1% formic acid in water): 30%B (acetonitrile)). The temperature of the RS autosampler was maintained at 10 °C, and the column was set at 35 °C. Positive electrospray ionization (ESI) and the Parallel Reaction Monitor (PRM) mode were employed to identify DH and the IS. AGC targets were set at 1 × 10^6, the maximum iteration time at 100 ms, the spray voltage at 3.2 kV, the capillary temperature at 320 °C, the S-lens RF level at 55, and 10 and 38 for the IS of the high collision dissociation cell of DH were the MS parameters used. The PRM transitions for DH and IS were 313.19/192.10 (m/z) and 400.18/310.12 (m/z), respectively.
Dissolve PK samples were stored at −80 °C at room temperature. We added 10 µL of 30% acetonitrile water and vortexed it for 3 s. We then added 10 µL of IS and vortexed it for 3 s. Then, 300 µL of acetonitrile was added to the above plasma, vortexed for 1 min, and centrifuged for 7 min. The mixture supernatant was collected and blown dry at 40 °C under nitrogen. Blow-dried samples were re-dissolved in 100 μL of 30% acetonitrile in water and centrifuged for 7 min.
Twelve male SD rats, weighing […], were used to perform PK studies on DH. SD rats fasted for 12 h before administration, but the water was freely available. Normal drinking and eating resumed four hours after administration. To study the bioavailability and PK parameters of DH, rats were randomly divided into two groups. The dose administered was 1.9 mg/kg for the intravenous group and 19.2 mg/kg for the oral administration group. Oral bioavailability was calculated using Equation (2) as follows:Oral bioavailability (%) = (AUCp.o. × Dosei.v./AUCi.v. × Dosep. o.) × 100%(2)
The Q Exactive Plus Orbitrap MS data were acquired using the Thermo Xcalibur 4.2. software (Thermo Fisher Scientific, Waltham, MA, USA). The Qual Browser was used to extract ion chromatograms for screening candidate metabolites with a mass tolerance of 5 ppm and a mass precision of 4 decimals. In addition, MS/MS fragment ions were extracted for structural confirmation of candidate metabolites. The Qual Browser was used for the quantification of DH in rat plasma. Pharmacokinetic parameters were processed using the non-compartmental pharmacokinetic data analysis software program of MaS Studio 1.5.2.14 stable (Shanghai Boca Pharmaceutical Technology Co., Shanghai, China). Finally, the results were described as arithmetic mean ± SD.

On the set-up of data set [2]: method as in doi:10.37547/TAJMSPR/Volume02Issue07-17. To be noted: rats, compared with verapamil; cited from earlier work.
In data set [3] the test system is membrane surface Na^+–Ca^2+ exchange. Also on record: method as in doi:10.13005/bpj/1892. To be noted: decreases sarcoplasmic reticulum Ca2+ release; cited from earlier work.
[4] abbreviates: I.V. 1.9 mg/kg, n = 6, mean ± SD.
Where [5] appears, read: P.O. 19.2 mg/kg, n = 6, mean ± SD.
The mark [6] stands for this setting: male, Sprague-Dawley, rat, plasma, iv, I.V. 1.9 mg/kg, n = 6, mean ± SD.
[7] abbreviates: male, Sprague-Dawley, rat, plasma, po, P.O. 19.2 mg/kg, n = 6, mean ± SD.

In data set [1] (setting [4]), `COc1cc2c(cc1OC)C(c1ccc(N(C)C)cc1)NCC2` (stereo not drawn) [DH, N, N-dimethylaniline-heliamine] showed an AUC0–t of 439 ± 30.1 ng·h/mL and an AUC0–∞ of 495 ± 36.4 ng·h/mL. Also, in data set [1] (I.V. 1.9 mg/kg, n = 6, mean ± SD, 1.9 mg/kg), the “Vd (apparent volume of distribution)” value is 15,514.58 ± 2159.74 mL/kg. Also, in data set [1] (setting [5]), the AUC0–t is 707 ± 265 ng·h/mL, the AUC0–∞ was 748 ± 279 ng·h/mL, the “CL (clearance)” value was 30,148.65 ± 15,354.27 mL/h/kg and the “Vd (apparent volume of distribution)” value is 126,728.09 ± 56,867.09 mL/kg. Also, the Vd in data set [1] (male, Sprague-Dawley, rat, plasma, iv, 1.9 mg/kg, I.V. 1.9 mg/kg, n = 6, mean ± SD, read-out: Vd (apparent volume of distribution)) was 15.1 L/kg. For the same compound, in data set [1] (setting [6]), the concentration peaked (Cmax) at 183 ± 33.6 ng/mL, the MRT last is 2.49 ± 0.33 h, the MRT inf was found to be 3.56 ± 0.26 h and the half-life is 2.79 ± 0.34 h. Besides, in data set [1] (male, Sprague-Dawley, rat, plasma, iv, I.V. 1.9 mg/kg, n = 6, mean ± SD, read-out: CL (clearance) (converted)), the clearance is 64.3 mL/min/kg. Also, the bioavailability (as a rule, the share of a dose that reaches the circulation, judged against a reference dose that is usually intravenous) in data set [1] (male, Sprague-Dawley, rat, plasma, oral, P.O. 19.2 mg/kg vs I.V. 1.9 mg/kg, read-out: Fabs (absolute oral bioavailability)) worked out at 16.1%. In addition, in data set [1] (setting [7]), the Cmax – broadly, the highest concentration seen after dosing – was found to be 121 ± 42.4 ng/mL; the Tmax (usually the time from dosing to the highest level) turned out to be 1.5 h; the MRT last came to 4.07 ± 0.34 h; the MRT inf turned out to be 4.76 ± 0.4 h. For the same compound, the half-life in data set [1] (setting [7]) is 2.96 ± 0.32 h. For the same compound, the Acute toxicity parameters result in data set [2] is given as “more than six times lower than those of verapamil”. In addition, the “membrane surface Na+–Ca2+ exchange inhibition” value in data set [3] was “inhibitor”.

The values are drawn from PMC11434354, “Metabolic and Pharmacokinetic Profiling Studies of N, N-Dimethylaniline-Heliamine in Rats by UHPLC-Q-Orbitrap MS/MS” (Molecules, 2024).
